From patent publication US7271264B2, “Pentacyclic oxepines and derivatives thereof, compositions and methods” (Eli Lilly and Company, priority 2002, dated 2007)
Structures can show the parent of a compound that is named as a salt.

Columns and labels:
[1] = biological target: T1, ERAlpha receptor (PanVera) (Homo sapiens, UniProt P03372); experiment: Competition binding assay, 3H-Estradiol, ERAlpha receptor; conditions: 3H-Estradiol competition; IC50 converted to Ki using Cheng-Prusoff equation; read-out: ER binding Ki (ERα)
T1 construct: purchased PanVera
T1 sequence (P03372 1-595): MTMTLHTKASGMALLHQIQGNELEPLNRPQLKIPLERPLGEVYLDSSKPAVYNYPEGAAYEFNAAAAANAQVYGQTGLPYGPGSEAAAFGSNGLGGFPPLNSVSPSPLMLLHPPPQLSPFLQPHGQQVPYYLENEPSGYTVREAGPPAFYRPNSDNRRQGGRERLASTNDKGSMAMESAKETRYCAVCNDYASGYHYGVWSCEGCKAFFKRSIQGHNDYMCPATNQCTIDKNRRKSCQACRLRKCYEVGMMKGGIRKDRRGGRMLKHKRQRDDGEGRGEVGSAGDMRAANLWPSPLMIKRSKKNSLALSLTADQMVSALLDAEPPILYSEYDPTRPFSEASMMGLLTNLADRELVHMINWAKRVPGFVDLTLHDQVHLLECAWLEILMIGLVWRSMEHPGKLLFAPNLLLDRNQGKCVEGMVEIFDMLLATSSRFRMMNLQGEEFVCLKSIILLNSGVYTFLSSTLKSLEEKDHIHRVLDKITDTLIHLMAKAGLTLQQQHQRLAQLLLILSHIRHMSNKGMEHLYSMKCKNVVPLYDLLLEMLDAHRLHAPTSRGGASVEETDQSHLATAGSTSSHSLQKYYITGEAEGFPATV
Procedure: (§1) Competition binding assay is run in a buffer containing 50 mM Hepes, pH 7.5, 1.5 mM EDTA, 150 mM NaCl, 10% glycerol, 1 mg/ml ovalbumin and 5 mM DTT, using 0.025 μCi per well ^3H-Estradiol(NEN #NET517 at 118 Ci/mmol, 1 mCi/ml), 10 ng/well ERAlpha or ERbeta receptor (PanVera). Competing compounds are added at 10 different concentrations. Non-specific binding is determined in the presence of 1 μM of 17-B Estradiol. The binding reaction (140 μl) is incubated for 4 hours at room temperature, then 70 μl of cold DCC buffer is added to each reaction (DCC buffer contains per 50 ml of assay buffer, 0.75 g of charcoal (Sigma) and 0.25 g of dextran (Pharmacia)). Plates are mixed 8 minutes on an orbital shaker at 4° C. Plates are then centrifuged at 3,000 rpm at 4° C. for 10 minutes. An aliquot of 120 μl of the mix is transferred to another 96-well, white flat bottom plate (Costar) and 175 μl of Wallac Optiphase “Hisafe 3” scintillation fluid is added to each well. Plates are sealed and shaken vigorously on an orbital shaker. After an incubation of 2.5 hrs, read plates in a Wallac Microbeta counter. The data is used to calculate an IC50 and % Inhibition at 10 μM. The Kd for ^3H-Estradiol is determined by saturation binding to ER alpha and ER beta receptors. The IC50 values for compounds are converted to Ki using Cheng-Prusoff equation and the Kd determined by saturation binding assay.

[2] = system: Ishikawa human endometrial tumor cells; experiment: Ishikawa alkaline phosphatase (PNPP) assay, antagonist mode; assay type: cell-based; conditions: with E2 (1 nM)
From the text: (§2) Ishikawa human endometrial tumor cells are maintained in MEM (minimum essential medium, with Earle's salts and L-Glutamine, Gibco BRL, Gaithersburg, Md.), supplemented with 10% fetal bovine serum (FBS) (V/V), (Gibco BRL). One day prior to assay, growth media is changed to assay medium, DMEM/F-12 (3:1) (Dulbecco's Modified Eagle Medium: Nutrient Mixture F-12,3:1 Mixture, phenol red-free, Gibco BRL) supplemented with 5% dextran coated charcoal stripped fetal bovine serum (DCC-FBS) (Hyclone, Logen, Utah), L-Glutamine (2 mM), MEM sodium pyruvate (1 mM), HEPES (N-[2-hydroxyethyl]piperazine-N′-[2-ethanesulfonic acid] 2 mM) all from Gibco BRL). After an overnight incubation, ishikawa cells are rinsed with Dulbecco's Phosphate Buffered Saline (1×) (D-PBS) without Ca^+2 and Mg^+2 (Gibco BRL), and trypsinized by a 3 minute incubation with 0.25% Trypsin/EDTA, phenol red-free (Gibco BRL). Cells are resuspended in assay medium and adjusted to 250,000 cells/ml. Approximately 25,000 cells in a 100 ul media are added to flat-bottom 96 wells microculture plates (Costar 3596) and incubated at 37° C. in a 5% CO2 humidified incubator for 24 hours. The next day, serial dilutions of compounds are prepared in assay medium (at 6 times the final concentration in the assay). The assay is run in dual mode, agonist and antagonist modes. For the agonist mode, plates receive 25 μl/well of assay medium followed by 25 μl/well of diluted compounds (at 6× the final concentrations). For the antagonist mode, plates receive 25 μl/well of 6 nM E2 (β-Estradiol, Sigma, St. Louis, Mo.) followed by 25 μl/well of diluted compounds (at 6× the final concentrations). After an additional 48-hour incubation at 37° C. in a 5% CO2 humidified incubator, media is aspirated from wells and 100 μl fresh assay medium is added to each microculture. Serial dilutions of compounds are prepared and added to the cells as described above. After an additional 72 hour incubation at 37° C. in a 5% CO2 humidified incubator, the assay is quenched by removing media and rinsing plates twice in Dulbecco's Phosphate Buffered Saline (1×) (D-PBS) (Gibco BRL). The plates are dried for 5 min and frozen at −70° C. for at least 1 hour. The plates are then removed from the freezer and allowed to thaw at room temperature. To each well, 100 μl of 1-Step™ PNPP (Pierce Chemical Company, Rockford, Ill.) is added. After a 20-minute incubation, plates are read on a spectophotometer at 405 nm. The data is fitted to a linear interpolation to derive EC50 (for agonist mode) or IC50 (for antagonist mode) values. For the agonist mode, a % efficacy for each compound is calculated versus the response to tamoxifen. For the antagonist mode, a % efficacy for each compound is calculated versus E2 (1 nM) alone.

[3] = system: Ishikawa human endometrial tumor cells; experiment: Ishikawa alkaline phosphatase (PNPP) assay, agonist mode; assay type: cell-based; conditions: for Ishikawa Agonist % Eff: % efficacy versus the response to tamoxifen; for EC50: Homo sapiens, Ishikawa
From the text: as §2

[4] = system: MCF-7 breast adenocarcinoma cells; experiment: MCF-7 proliferation assay (14C-thymidine), antagonist mode; assay type: cell-based; conditions: E2 10 pM
Procedure: MCF-7 breast adenocarcinoma cells (ATCC HTB 22) are maintained in MEM (minimal essential medium, phenol red-free, Gibco BRL) supplemented with 10% fetal bovine serum (FBS) (VV), L-glutamine (2 mM), sodium pyruvate (1 mM), HEPES ((N-[2-hydroxyethyl]piperazine-N′-[2-ethanesulfonic acid]10 mM}, non-essential amino acids (0.1 mM) and Penicillin Streptomycin (1×). Seven days prior to assay, MCF-7 cells are switched to assay media which is the same as maintenance medium except supplemented with 10% dextran-coated charcoal-stripped fetal bovine serum (DCC-FBS) assay medium in place of 10% FBS. MCF-7 cells are removed from flasks using 10× Trypsin EDTA (phenol red free, Gibco BRL) and diluted to IX in (Ca++/Mg++ free HBSS (phenol red-free). Cells are adjusted to 80,000 cells/ml in assay medium. Approximately 8,000 cells (100 μl) are added to each well in 96 well Cytostar T scintillation plates (Amersham) and incubated at 37° C. in a 5% CO2 humidified incubator for 24 hours to allow cell adherence and equilibration after transfer. Serial dilutions of drugs are prepared in assay medium at 4× the final desired concentration). A 50 μl aliquot of drug dilutions (at 4× the final assay concentration) is transferred to duplicate wells followed by 50 μl assay medium for the agonist mode or 50 μl of 40 pM of E2 for the antagonist mode to a final volume of 200 μl. For each of the agonist plates, a basal level (media) and a maximum stimulated level (with 1 μM E2) is determined. For each of the antagonist plates, a basal level (media) and a E2 (10 pM) alone control is determined. After an additional 48 hours at 37° C. in a 5% CO2 humidified incubator, 20 μl of assay medium containing 0.01 μCi of ^14C-thymidine (52 mCi/mmol, 50 μCi/ul, Amersham) is added to each well. The plates are incubated overnight in the same incubator and then counted on the Wallac Microbeta counter. The data is averaged to calculate an IC50 and % inhibition @ 1 μM for the antagonist mode. For the agonist mode, an EC50 and percent of maximum E2 stimulation and concentration of maximum stimulation is calculated.

[5] = biological target: T2, ERbeta receptor (PanVera) (Homo sapiens, UniProt Q92731); experiment: Competition binding assay, 3H-Estradiol, ERbeta receptor; conditions: 3H-Estradiol competition; IC50 converted to Ki using Cheng-Prusoff equation; read-out: ER binding Ki (ERβ)
T2 construct: purchased PanVera
T2 sequence (Q92731 whole entry): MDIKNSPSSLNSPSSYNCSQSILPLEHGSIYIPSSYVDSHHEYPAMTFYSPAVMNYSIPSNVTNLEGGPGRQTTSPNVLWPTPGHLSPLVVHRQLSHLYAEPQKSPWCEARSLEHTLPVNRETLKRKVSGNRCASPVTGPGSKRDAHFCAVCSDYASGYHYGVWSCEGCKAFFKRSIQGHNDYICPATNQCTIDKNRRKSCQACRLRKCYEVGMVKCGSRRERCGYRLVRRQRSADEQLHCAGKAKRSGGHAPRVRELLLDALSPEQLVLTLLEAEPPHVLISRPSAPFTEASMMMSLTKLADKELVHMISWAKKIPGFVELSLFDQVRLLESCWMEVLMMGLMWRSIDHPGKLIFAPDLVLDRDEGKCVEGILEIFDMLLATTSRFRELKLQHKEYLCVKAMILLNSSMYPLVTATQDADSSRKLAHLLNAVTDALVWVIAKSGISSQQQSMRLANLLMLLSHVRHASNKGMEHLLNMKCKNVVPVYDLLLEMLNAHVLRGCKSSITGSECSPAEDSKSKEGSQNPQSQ
Procedure: as §1

[6] = antagonist mode, hydrochloride salt
[7] = Homo sapiens, MCF7, antagonist mode

SMILES	Ki [1]	IC50 [2]	Ishikawa Agonist % Eff [3]	EC50 [3]	IC50 ([4]; antagonist mode)	Ki [5]	IC50 ([2]; hydrochloride salt)	Ishikawa Agonist % Eff ([3]; hydrochloride salt)	IC50 [4, 6]	IC50 ([2]; Homo sapiens, Ishikawa)	IC50 [4, 7]
Cl.Oc1ccc2c(c1)COC(c1ccc(OCCN3CCCCC3)cc1)c1c-2ccc2cc(O)ccc12 (single isomer, unassigned) [Example 6, 11-[4-(2-Piperidin-1-yl-ethoxy)-phenyl]-11,13-dihydro-12-oxa-benzo[3,4]cyclohepta[1,2-a]naphthalene-2,8-diolhydrochloride salt]	58 nM	740 nM	38%	54 nM	160 nM	120 nM	–	–	–	–	–
Cl.Oc1ccc2c(c1)COC(c1ccc(OCCN3CCCCC3)cc1)c1c-2ccc2cc(O)ccc12 (single isomer, unassigned) [Example 7, 11-[4-(2-Piperidin-1-yl-ethoxy)-phenyl]-11,13-dihydro-12-oxa-benzo[3,4]cyclohepta[1,2-a]naphthalene-2,8-diolhydrochloride salt]	0.7 nM	2.2 nM	2.6%	–	0.4 nM	1.7 nM	–	–	–	–	–
Cl.Oc1ccc2c3c(ccc2c1)-c1ccc(F)cc1COC3c1ccc(OCCN2CCCCC2)cc1 (single isomer, unassigned) [Example 8, 2-Fluoro-11-[4-(2-piperidin-1-yl-ethoxy)-phenyl]-11,13-dihydro-12-oxa-benzo[3,4]cyclohepta[1,2-a]naphthalen-8-ol hydrochloride salt]	0.7 nM	–	–	–	–	1.4 nM	4.3 nM	8.8%	0.4 nM	–	–
Cl.Oc1ccc2c3c(ccc2c1)-c1ccc(F)cc1COC3c1ccc(OCCN2CCCCC2)cc1 (single isomer, unassigned) [Example 9, 2-Fluoro-11-[4-(2-piperidin-1-yl-ethoxy)-phenyl]-11,13-dihydro-12-oxa-benzo[3,4]cyclohepta[1,2-a]naphthalen-8-ol hydrochloride salt]	62 nM	–	–	–	–	89 nM	350 nM	11%	68 nM	–	–
COc1ccc2c3c(sc2c1)-c1ccccc1COC3c1ccc(OCCN2CCCCC2)cc1 (stereo not drawn) [Example 1, 1-{2-[4-(10-Methoxy-5H,7H-6-oxa-12-thia-dibenzo[a,e]azulen-7-yl)-phenoxy]-ethyl}-piperidine]	240 nM	–	31%	300 nM	–	–	–	–	–	–	–
Oc1ccc2c3c(sc2c1)-c1ccccc1COC3c1ccc(OCCN2CCCCC2)cc1 (stereo not drawn) [Example 2, 7-[4-(2-Piperidin-1-yl-ethoxy)-phenyl]-5H,7H-6-oxa-12-thia-dibenzo[a,e]azulen-10-ol]	2.9 nM	–	41%	2.8 nM	–	19 nM	–	–	–	270 nM	36 nM
COc1ccc2c3c(ccc2c1)-c1ccccc1COC3c1ccc(OCCN2CCCCC2)cc1 (stereo not drawn) [Example 3, 1-{2-[4-(8-Methoxy-11,13-dihydro-12-oxa-benzo[3,4]cyclohepta[1,2-a]naphthalen-11-yl)-phenoxy]-ethyl}-piperidine]	140 nM	–	21%	260 nM	–	430 nM	–	–	–	340 nM	480 nM
Oc1ccc2c3c(ccc2c1)-c1ccccc1COC3c1ccc(OCCN2CCCCC2)cc1 (stereo not drawn) [Example 4, 11-[4-(2-Piperidin-1-yl-ethoxy)-phenyl]-11,13-dihydro-12-oxa-benzo[3,4]cyclohepta[1,2-a]naphthalen-8-ol trifluoroacetate]	2.6 nM	–	17%	1.4 nM	–	4 nM	–	–	–	36 nM	2.4 nM
